Measurements from patent publication US20110086759A1, “CHEMICAL COMPOUNDS” (SYNGENTA CROP PROTECTION, INC., priority 2007, published 2011).

Columns and labels:
Type in all cases: in vivo
Setaria faberi (SETFA) [1] = test: Pre-emergence biological efficacy, glasshouse pot test; conditions: 312 h, pre-emergence, 1,000 g/ha, evaluated after 13 days (100=total damage; 0=no damage), read-out: Percentage damage SETFA
Method in brief: (§1)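 Seeds sown in standard soil in pots, held one day in glasshouse (24/16 °C day/night, 14 h light, 65% humidity), then sprayed with aqueous solution from acetone/water (50:50) formulation with 0.5% Tween 20 at 1000 or 250 g/ha. Damage scored after 13 days (0 = none, 100 = total).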

Solanum nigrum (SOLNI) [2] = test: as above; conditions: 312 h, pre-emergence, 1,000 g/ha, evaluated after 13 days (100=total damage; 0=no damage), read-out: Percentage damage SOLNI
Method in brief: as §1

[3] = system: Ipomea hederaceae (IPOHE); test: as above; conditions: Ipomoea hederacea, 312 h; pre-emergence, 1,000 g/ha, evaluated after 13 days (100=total damage; 0=no damage); read-out: Percentage damage IPOHE
Method in brief: as §1

[4] = system: Amaranthus retoflexus (AMARE); test: as above; conditions: Amaranthus retroflexus, 312 h; pre-emergence, 1,000 g/ha, evaluated after 13 days (100=total damage; 0=no damage); read-out: Percentage damage AMARE
Method in brief: as §1

[5] = system: Alopecurus myosuroides (ALOMY); test: as above; conditions: 312 h, pre-emergence, 1,000 g/ha, evaluated after 13 days (100=total damage; 0=no damage), read-out: Percentage damage ALOMY
Method in brief: as §1

[6] = system: Echinochloa crus-galli (ECHCG); test: as above; conditions: 312 h, pre-emergence, 1,000 g/ha, evaluated after 13 days (100=total damage; 0=no damage), read-out: Percentage damage ECHCG
Method in brief: as §1

Setaria faberi (SETFA) [7] = test: Post-emergence biological efficacy, glasshouse pot test; conditions: 312 h, post-emergence, 1,000 g/ha, evaluated after 13 days (100=total damage; 0=no damage), read-out: Percentage damage caused to weed species, SETFA
Method in brief: (§2)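 Plants were sown in standard soil and grown 8 days in a glasshouse (24/16° C. day/night, 14 hours light, 65% humidity), then sprayed post-emergence at 1000 or 250 g/ha from acetone/water (50:50) with 0.5% Tween 20. Damage was scored visually after 13 days (0 = none, 100 = total).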

Solanum nigrum (SOLNI) [8] = test: as above; conditions: 312 h, post-emergence, 1,000 g/ha, evaluated after 13 days (100=total damage; 0=no damage), read-out: Percentage damage caused to weed species, SOLNI
Method in brief: as §2

[9] = system: Ipomea hederaceae (IPOHE); test: as above; conditions: Ipomoea hederacea, 312 h; post-emergence, 1,000 g/ha, evaluated after 13 days (100=total damage; 0=no damage); read-out: Percentage damage caused to weed species, IPOHE
Method in brief: as §2

[10] = system: Amaranthus retoflexus (AMARE); test: as above; conditions: Amaranthus retroflexus, 312 h; post-emergence, 1,000 g/ha, evaluated after 13 days (100=total damage; 0=no damage); read-out: Percentage damage caused to weed species, AMARE
Method in brief: as §2

[11] = system: Alopecurus myosuroides (ALOMY); test: as above; conditions: 312 h, post-emergence, 1,000 g/ha, evaluated after 13 days (100=total damage; 0=no damage), read-out: Percentage damage caused to weed species, ALOMY
Method in brief: as §2

[12] = system: Echinochloa crus-galli (ECHCG); test: as above; conditions: 312 h, post-emergence, 1,000 g/ha, evaluated after 13 days (100=total damage; 0=no damage), read-out: Percentage damage caused to weed species, ECHCG
Method in brief: as §2

| Structure (SMILES) | pest or weed control at 1000 g/ha (Setaria faberi (SETFA) [1]) [%] | pest or weed control at 1000 g/ha (Solanum nigrum (SOLNI) [2]) [%] | pest or weed control at 1000 g/ha [3] [%] | pest or weed control at 1000 g/ha [4] [%] | pest or weed control at 1000 g/ha [5] [%] | pest or weed control at 1000 g/ha [6] [%] | pest or weed control at 1000 g/ha (Setaria faberi (SETFA) [7]) [%] | pest or weed control at 1000 g/ha (Solanum nigrum (SOLNI) [8]) [%] | pest or weed control at 1000 g/ha [9] [%] | pest or weed control at 1000 g/ha [10] [%] | pest or weed control at 1000 g/ha [11] [%] | pest or weed control at 1000 g/ha [12] [%] |
| --- | --- | --- | --- | --- | --- | --- | --- | --- | --- | --- | --- | --- |
| COC(=O)c1nc(C2CC2)nc(NCCCn2ccnc2)c1Cl [Compound 4-250, 5-Chloro-2-cyclopropyl-4-[3-(imidazol-1-yl)propylamino]-6-methoxycarbonyl-pyrimidine] | 0 | 40 | 80 | 90 | 0 | 0 | 50 | 70 | 100 | 100 | 0 | 30 |
| COC(=O)c1nc(C2CC2)nc(NCCCc2cccnc2)c1Cl [Compound 4-251, 5-Chloro-2-cyclopropyl-6-methoxycarbonyl-4-[3-(pyrid-3-yl)propylamino]-pyrimidine] | 0 | 20 | 20 | 40 | 0 | 0 | 50 | 80 | 50 | 100 | 10 | 40 |
| COC(=O)c1nc(C2CC2)nc(NC(C)CCc2ccccc2)c1Cl (stereo not drawn) [Compound 4-252, 5-Chloro-2-cyclopropyl-6-methoxycarbonyl-4-(3-phenyl-1-methyl-propylamino)-pyrimidine] | 0 | 0 | 0 | 20 | 0 | 0 | 30 | 60 | 60 | 100 | 10 | 0 |
| COC(=O)c1nc(C2CC2)nc(NCCCCc2ccccc2)c1Cl [Compound 4-253, 5-Chloro-2-cyclopropyl-6-methoxycarbonyl-4-(4-phenylbutyl-amino)pyrimidine] | 30 | 80 | 100 | 50 | 10 | 20 | 50 | 100 | 70 | 100 | 10 | 40 |
| COC(=O)c1nc(C2CC2)nc(NCC(O)c2ccccc2)c1Cl (stereo not drawn) [Compound 4-257, 5-Chloro-2-cyclopropyl-4-(2-hydroxy-2-phenyl-ethylamino)-6-methoxycarbonyl-pyrimidine] | 80 | 90 | 100 | 100 | 40 | 60 | 80 | 90 | 100 | 100 | 60 | 70 |
| COC(=O)c1nc(C2CC2)nc(NCC(O)c2cccc(O)c2)c1Cl (stereo not drawn) [Compound 4-258, 5-Chloro-2-cyclopropyl-4-[2-hydroxy-2-(3-hydroxyphenyl)-ethylamino]-6-methoxycarbonyl-pyrimidine] | 40 | 100 | 100 | 100 | 30 | 30 | 70 | 80 | 90 | 100 | 30 | 60 |
| COC(=O)c1nc(C2CC2)nc(NCC(O)c2ccc(O)cc2)c1Cl (stereo not drawn) [Compound 4-259, 5-Chloro-2-cyclopropyl-4-[2-hydroxy-2-(4-hydroxyphenyl)-ethylamino]-6-methoxycarbonyl-pyrimidine] | 30 | 90 | 100 | 100 | 10 | 30 | 80 | 80 | 70 | 100 | 20 | 30 |
| COC(=O)c1nc(C2CC2)nc(NCCNc2ccccc2)c1Cl [Compound 4-260, 5-Chloro-2-cyclopropyl-6-methoxycarbonyl-4-[2-(phenylamino)-ethylamino)-pyrimidine] | 20 | 90 | 90 | 100 | 10 | 20 | 60 | 80 | 100 | 100 | 20 | 40 |
| COC(=O)c1nc(C2CC2)nc(NCCSCc2ccccc2)c1Cl [Compound 4-262, 5-Chloro-2-cyclopropyl-6-methoxycarbonyl-4-[2-(phenylmethyl-thio)ethylamino]-pyrimidine] | 0 | 10 | 50 | 40 | 0 | 0 | 30 | 60 | 60 | 80 | 10 | 10 |
| COC(=O)c1nc(C2CC2)nc(NCCSCc2c(Cl)cccc2Cl)c1Cl [Compound 4-263, 5-Chloro-2-cyclopropyl-4-{2-[(2,6-dichloro-phenyl)methylthio]-ethylamino}-6-methoxycarbonyl-pyrimidine] | 0 | 10 | 30 | 30 | 0 | 0 | 30 | 60 | 50 | 90 | 0 | 0 |
| COC(=O)c1nc(C2CC2)nc(NCC(O)COc2ccc(Cl)cc2)c1Cl (stereo not drawn) [Compound 4-264, 5-Chloro-4-[3-(4-chlorophenoxy)-2-hydroxy-propylamino]-2-cyclopropyl-6-methoxycarbonyl-pyrimidine] | 80 | 90 | 90 | 80 | 40 | 60 | 70 | 100 | 60 | 100 | 30 | 50 |
